Article PMC8525588, “Direct targeting of wild-type glucocerebrosidase by antipsychotic quetiapine improves pathogenic phenotypes in Parkinson’s disease models” (JCI Insight, 2021)

Molecular target: T1, β-glucocerebrosidase (GCase) (Homo sapiens, UniProt P04062)
T1 construct: gene GBA1
T1 sequence (P04062 40-536): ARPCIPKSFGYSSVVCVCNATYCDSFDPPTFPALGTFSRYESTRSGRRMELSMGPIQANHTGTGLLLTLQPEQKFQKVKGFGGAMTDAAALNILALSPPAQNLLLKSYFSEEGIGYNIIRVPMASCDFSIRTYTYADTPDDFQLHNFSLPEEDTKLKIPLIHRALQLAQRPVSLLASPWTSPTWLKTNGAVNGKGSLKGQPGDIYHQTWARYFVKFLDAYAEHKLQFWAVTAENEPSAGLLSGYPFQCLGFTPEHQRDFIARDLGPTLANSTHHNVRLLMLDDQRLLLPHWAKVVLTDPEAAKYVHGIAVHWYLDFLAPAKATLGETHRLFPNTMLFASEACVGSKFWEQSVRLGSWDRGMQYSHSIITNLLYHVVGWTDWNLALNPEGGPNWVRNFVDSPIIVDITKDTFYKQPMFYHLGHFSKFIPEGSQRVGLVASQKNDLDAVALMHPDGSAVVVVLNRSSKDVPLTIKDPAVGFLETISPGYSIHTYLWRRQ
Assay: biochemical

Kd: 5 µM
Structure (SMILES): OCCOCCN1CCN(C2=Nc3ccccc3Sc3ccccc32)CC1 [quetiapine]
